This note sets out measurements from ChEMBL document CHEMBL1201862, “PubChem BioAssay data set” (2004).

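Protocol summary: plate cells (96-well), add compound at 5 concentrations, incubate 48 h, interpolate endpoints linearly. GI50: concentration for 50% inhibition of growth.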 Active and inactive are the calls of the source. Rule as the data show it: active = GI50 up to about 1.1 µM and inactive = higher. A value given as a limit tells only on which side of the number the result lay.

Among the test systems are BT-549; SW-620; A498; HCT-15; RPMI-8226; HOP-62; ACHN; MDA-MB-435; HCT-116; SK-MEL-5; Malme-3M; 786-0; OVCAR-8; IGROV-1; A549; MCF7; DU-145; K562; HL-60; SR.
What all share (assay): NCI anticancer screen, dose series, 48 h

With `Cc1cc2nc3c(C#N)c(-c4ccccc4)cc(Nc4ccc(F)cc4)n3c2cc1C`, the GI50 in the test on BT-549 was 22.6 µM (inactive); with SW-620 it was 55.5 µM (inactive); in the test on A498, 22.1 µM (inactive); in the test on HCT-15 it was 9.25 µM; in the test with RPMI-8226 it was > 100 µM (inactive); in the test on HOP-62 it was 14.4 µM (inactive). The GI50 with ACHN is 16.4 µM (inactive); in the test on MDA-MB-435 it was > 100 µM (inactive); with HCT-116, 13.7 µM (inactive); with SK-MEL-5, 16 µM (inactive); in the test on Malme-3M, 21.5 µM (inactive); in the test with 786-0, 8.49 µM (inactive). For the same molecule, the GI50 in the test on OVCAR-8 was 10.7 µM (inactive).

Consider `C[C@]12CC[C@H]3[C@@H](CC=C4C[C@@H](O)CC[C@@]43C)[C@@H]1CC[C@@H]2N(CCO)CCO`, for which the GI50 in the test on IGROV-1 was 50.7 µM (inactive); in the test with BT-549 it was > 100 µM (inactive); with SW-620, 41.3 µM (inactive); in the test on A498 it was 16.1 µM (inactive); with HCT-15 it was 71.4 µM; in the test on RPMI-8226, > 100 µM (inactive). The GI50 with HOP-62 was 51.3 µM (inactive); in the test with A549 it was 42 µM (inactive); with MCF7, 33.2 µM (inactive); with ACHN, 30.7 µM (inactive); in the test with MDA-MB-435, 85.9 µM (inactive); in the test on HCT-116, 26.9 µM (inactive). Besides, the GI50 is 63.5 µM (inactive) in the test on SK-MEL-5; 31 µM (inactive) in the test on Malme-3M; 36.6 µM (inactive) with DU-145; 71.9 µM (inactive) in the test with K562; 19.7 µM (inactive) with 786-0; 88.5 µM (inactive) in the test on OVCAR-8.

As to `C=CCOC(=O)CCCCCCCCCCCCCCCOC(=O)c1c(CCC[C@@H](C)O[Si](C)(C)C(C)(C)C)nc([O-])[n+]2c1CC[C@H]2CC1(CC/C=C\[C@H](CC)O[Si](C(C)C)(C(C)C)C(C)C)OCCO1`, the GI50 with BT-549 is > 100 µM (inactive); in the test with A498, > 100 µM (inactive); with HCT-15, 46 µM; with RPMI-8226 it was 48.8 µM (inactive); in the test with HOP-62, 48.6 µM (inactive); in the test on A549 it was 55 µM (inactive). Moreover, the GI50 was 53.5 µM (inactive) in the test on MCF7; 35.7 µM (inactive) with ACHN; > 100 µM (inactive) in the test with MDA-MB-435; 47.1 µM (inactive) in the test on HCT-116; 21.9 µM (inactive) in the test on SK-MEL-5; > 100 µM (inactive) in the test on Malme-3M. Also, the figures for the GI50 with DU-145 and in the test on 786-0 were > 100 µM (inactive) and 26.7 µM (inactive), respectively.

As for `C=C(C)[C@H]1CC(=O)/C(C)=C\CC/C(C)=C/CC[C@@]2(C)O[C@@H]2C1`, the GI50 was 29 µM (inactive) in the test with IGROV-1; 47.6 µM (inactive) in the test on BT-549; 46.3 µM (inactive) in the test on SW-620; > 100 µM (inactive) in the test with A498; 33.9 µM in the test on HCT-15; 20.7 µM (inactive) with RPMI-8226. Moreover, the GI50 was 40.2 µM (inactive) in the test with HOP-62; 15.8 µM (inactive) in the test on A549; 27.5 µM (inactive) with HL-60; 29.4 µM (inactive) in the test with ACHN; 17 µM (inactive) in the test on MDA-MB-435; 16 µM (inactive) with HCT-116. Besides, the GI50 was 23.7 µM (inactive) in the test on SK-MEL-5; 36.8 µM (inactive) in the test on Malme-3M; 17.7 µM (inactive) in the test with DU-145; 25.4 µM (inactive) with SR; 28.4 µM (inactive) with K562; 47.5 µM (inactive) in the test with 786-0. Besides, in the test with OVCAR-8, the GI50 was 35.5 µM (inactive).

As for `c1ccc2c(c1)c1c(n2CCOCCN2CCCC2)CCCC1`, the GI50 with IGROV-1 is 23.7 µM (inactive); with SW-620 it was 16.2 µM (inactive); in the test on HCT-15, 17 µM; in the test on RPMI-8226, 18.2 µM (inactive); with HOP-62 it was 15.5 µM (inactive); in the test on A549, 28.1 µM (inactive). The GI50 was 16 µM (inactive) in the test with MCF7; 12.2 µM (inactive) in the test on HL-60; 20.1 µM (inactive) with ACHN; 18.9 µM (inactive) in the test with MDA-MB-435; 17.1 µM (inactive) in the test with HCT-116; 15.2 µM (inactive) with SK-MEL-5. The GI50 in the test with Malme-3M was 17.1 µM (inactive); in the test on DU-145 it was 30.3 µM (inactive); in the test with SR, 17.2 µM (inactive); in the test with K562, 15 µM (inactive); in the test with 786-0, 16.1 µM (inactive); in the test on OVCAR-8, 22.4 µM (inactive).

Turning to `CC(=O)NCC1(c2ccccc2)CCN(CC2COc3ccccc3O2)CC1` (configuration not stated) [ACOXATRINE], the GI50 with IGROV-1 was > 100 µM (inactive); with SW-620 it was > 100 µM (inactive); with A498 it was > 100 µM (inactive); with HCT-15 it was over 100 µM; in the test on RPMI-8226 it was > 100 µM (inactive); in the test with HOP-62 it was > 100 µM (inactive). Also, the GI50 in the test with A549, in the test with MCF7, in the test on HL-60, with ACHN, in the test with MDA-MB-435 and in the test on HCT-116 was > 100 µM (inactive) throughout. Also, the GI50 in the test on SK-MEL-5, in the test on Malme-3M, in the test with DU-145, with SR, in the test on K562 and in the test with 786-0 was > 100 µM (inactive) in each case. Moreover, the GI50 in the test on OVCAR-8 was > 100 µM (inactive).

For `OC1c2ccccc2CC12Cc1ccccc1C2` (configuration not stated), the GI50 is > 100 µM (inactive) in the test with IGROV-1; > 100 µM (inactive) in the test on SW-620; > 100 µM (inactive) in the test on A498; over 100 µM in the test on HCT-15; 48.2 µM (inactive) in the test on RPMI-8226; > 100 µM (inactive) in the test with HOP-62. The GI50 in the test with A549 was 99.5 µM (inactive); in the test with MCF7, > 100 µM (inactive); with HL-60, 74.1 µM (inactive); with ACHN, > 100 µM (inactive); in the test with MDA-MB-435, > 100 µM (inactive); in the test on HCT-116 it was 79.4 µM (inactive). Besides, the GI50 was 22.6 µM (inactive) in the test on SK-MEL-5; 92.9 µM (inactive) in the test with Malme-3M; > 100 µM (inactive) in the test with DU-145; 38.5 µM (inactive) in the test with SR; 72.4 µM (inactive) in the test on K562; > 100 µM (inactive) in the test on 786-0. Also, the GI50 in the test with OVCAR-8 is > 100 µM (inactive).

As for `Cc1ccc(NC2=NCCO2)c2c1CCC2`, the GI50 in the test on IGROV-1 was 40 µM (inactive); in the test with SW-620, 46.9 µM (inactive); in the test on A498, 41.6 µM (inactive); in the test with HCT-15, 44.2 µM; in the test on RPMI-8226, 34.8 µM (inactive); in the test with HOP-62, 27.9 µM (inactive). In addition, the GI50 in the test with A549 was 41.7 µM (inactive); with MCF7, 31.8 µM (inactive); with HL-60, 16.7 µM (inactive); in the test with ACHN it was 85.3 µM (inactive); with MDA-MB-435, 20.5 µM (inactive); in the test with HCT-116 it was 15.3 µM (inactive). Further, the GI50 was 17.5 µM (inactive) in the test on SK-MEL-5; 27.8 µM (inactive) with Malme-3M; 63.2 µM (inactive) in the test on DU-145; 22.1 µM (inactive) in the test with SR; 26.7 µM (inactive) in the test with K562; 56 µM (inactive) in the test on 786-0. Besides, the GI50 in the test with OVCAR-8 was 35.1 µM (inactive).

With `c1ccc(/N=c2/sc3ccccc3s/c2=N/c2ccccc2)cc1`, the GI50 is 1.62 µM (inactive) in the test with IGROV-1; 1.72 µM (inactive) with SW-620; 2.33 µM (inactive) in the test on A498; 1.75 µM in the test on HCT-15; 4.57 µM (inactive) in the test on RPMI-8226; 4.45 µM (inactive) in the test on HOP-62. Moreover, the GI50 is 2.54 µM (inactive) with A549; 6.41 µM (inactive) with HL-60; 1.66 µM (inactive) with ACHN; 1.9 µM (inactive) in the test on MDA-MB-435; 1.72 µM (inactive) with HCT-116; 1.99 µM (inactive) with SK-MEL-5. Also, the GI50 with Malme-3M is 1.86 µM (inactive); in the test on DU-145, 5.02 µM (inactive); in the test on SR, 3.35 µM (inactive); in the test on K562, 3.78 µM (inactive); in the test with 786-0, 1.74 µM (inactive); in the test with OVCAR-8 it was 1.89 µM (inactive).

On to `Cn1nc2n(c1=O)CCCN2`, for which the GI50 is > 100 µM (inactive) in the test on IGROV-1; > 100 µM (inactive) with SW-620; > 100 µM (inactive) in the test with A498; over 100 µM in the test on HCT-15; > 100 µM (inactive) in the test on RPMI-8226; > 100 µM (inactive) with HOP-62. Also, the GI50 in the test on A549, in the test on HL-60, in the test with ACHN, in the test with MDA-MB-435, in the test on HCT-116 and in the test on SK-MEL-5 was > 100 µM (inactive) throughout. In addition, the GI50 in the test with Malme-3M, in the test with DU-145, in the test with SR, with K562, in the test with 786-0 and in the test on OVCAR-8 was > 100 µM (inactive) throughout.

Consider `N#Cc1c2c(c(Nc3cccc(C(F)(F)F)c3)n3c1nc1ccccc13)CCC2`, for which the GI50 in the test with BT-549 is 60.7 µM (inactive); in the test on SW-620 it was > 100 µM (inactive); in the test on A498, > 100 µM (inactive); with HCT-15, over 100 µM; in the test with RPMI-8226, > 100 µM (inactive); in the test on HOP-62, > 100 µM (inactive). In addition, the GI50 in the test with ACHN, in the test with MDA-MB-435, in the test with HCT-116, in the test on SK-MEL-5, in the test with Malme-3M and with DU-145 was > 100 µM (inactive) throughout. Further, the GI50 in the test with 786-0 and in the test on OVCAR-8 was > 100 µM (inactive) each time.

Regarding `COc1ccc(C2OC(=O)c3c2ccc2ccccc32)c(C)c1` (configuration not stated), the GI50 with IGROV-1 is 4.79 µM (inactive); in the test on BT-549, 10.5 µM (inactive); in the test on SW-620, 1.14 µM (inactive); in the test with A498 it was 1.93 µM (inactive); in the test with HCT-15, 1.93 µM; with RPMI-8226, 3.18 µM (inactive). The GI50 in the test with HOP-62 was 3.48 µM (inactive); in the test on A549 it was 3.07 µM (inactive); in the test on MCF7, 3.45 µM (inactive); with HL-60, 2.33 µM (inactive); in the test with ACHN, 5.93 µM (inactive); in the test with HCT-116 it was 3.81 µM (inactive). Further, the GI50 in the test with SK-MEL-5 was 1.77 µM (inactive); with Malme-3M, 1 µM (active); in the test with SR, 2.42 µM (inactive); in the test with K562, 0.697 µM (active); with 786-0, 3.33 µM (inactive); with OVCAR-8 it was 4.06 µM (inactive).
